According to US8592394B2, “Synthetic derivatives beta glycolipids and compositions thereof for the treatment of pathologic disorders” (Enzo Therapeutics, Inc., priority 2003, dated 2013):

What was measured:
[1] = test system: TNF-α; assay: Serum TNF-α by ELISA in ConA induced hepatitis; type: in vivo, mice; conditions: intraperitoneal
Method: (§1) Serum levels of IFN-γ, TGF-β, TNF-α IL-2, IL-4, IL-6, IL-10 and IL-12 were determined by “sandwich” ELISA, using commercial kits (Quantikine, R&D Systems, Minneapolis, Minn., USA). Serum insulin was also determined by “sandwich” ELISA too, using the commercial kit of Mercodia AB (Uppsala, Sweden) according to the manufacturer's instructions.

[2] = test system: ob/ob mice; assay: Serum ALT and AST (hepatic injury) in ob/ob mice; type: in vivo; conditions: for serum AST: vehicle group A 710
Method: The effect of β-glycolipids on liver injury was evaluated by serum aspartyl transaminase (AST) and alanine aminotransferase (ALT) activities, which were determined by a clinical chemistry analyzer, Reflovet Plus (Roche Diagnostics, GmbH, Mannheim, Germany).
(§2) Therefore, five groups of male C57BL/6 Ob/Ob mice were studied. Mice (6 per group) were fed (per os) daily for 4 weeks with 15 or 45 μg of GC (groups B and C, respectively) and 15 or 45 μg of ALIB-97 (groups D and E, respectively). Control mice (Group A) were administered vehicle only.

[3] = test system: fat-associated T cells; assay: Flow cytometry of T cell subsets in adipose tissue, stromal vascular cells and spleen of ob/ob mice; type: in vivo; conditions: 45 μg per os daily 4 weeks, vs vehicle
Method: Splenocytes and intrahepatic lymphocytes were isolated as follows: livers and spleens were kept in RPMI-1640+FCS. Then spleens were crushed through a 70 μm nylon cell strainer (Falcon) and centrifuged (1250 rpm for 7 min) for the removal of cell debris. Red blood cells were lysed with 1 ml of cold 155 mM ammonium chloride lysis buffer and centrifuged (1250 rpm for 3 min). Splenocytes were resuspended with 1 ml RPMI+FCS. Cell viability by trypan blue staining was above 90%. For intrahepatic lymphocytes, livers were crushed through a stainless mesh (size 60, Sigma) and the cell suspension was placed in a 50-ml tube for 5 min. Lymphoprep (10 ml, Ficoll, Axis-Shield PoC AS, Oslo, Norway) was placed under similar volume of cell suspension in 50-ml tubes. Tubes were centrifuged at 1800 rpm for 18 min. Cells in the interface were collected and centrifuged at 1800 rpm for 10 min, to obtain a pellet of cells depleted of hepatocytes to a final volume of 250 μl. Approximately 1×10^6 cells/mouse liver, were recovered.
Adipose tissue (visceral fat pads) was minced and incubated in Krebs-Ringer bicarbonate buffer (3 mL/g adipose tissue) containing 10mM glucose and 2.5% bovine serum albumin, incubated with 840 U/g collagenase type I (Sigma, Rehovot, Israel)) at 37° C. for 1 hour. Cells were filtered twice through chiffon mesh (100 μm) and centrifuged 50 g for 5 min. Floating adipocytes were separated from pelleted S/V fraction. The infranatant fraction was removed and centrifuged at 200 g for five minutes to pellet the S/V cells.
For metabolic syndrome experiments, the following antibodies were used for flow cytometry: anti-CD4-Pacific Blue, anti-CD8-FITC, anti-IL-17-PE, anti CD25-PercP-Cy5.5 and anti FOX3p PE-Cy725 (all from eBioscience, San Diego, Calif.). Surface staining was performed by incubating cells with antibodies and anti-CD16/32 (blocks Fc, eBioscience) at 4° C. in FACS buffer containing PBS and 0.5% BSA, for 30 min. Cells were washed twice with FACS buffer, resuspended in FACS buffer, and analyzed by flow cytometry. Appropriate isotype controls were used in all experiments. Intracellular staining was performed using Foxp3 staining buffer kit (eBioscience, San Diego, Calif.). Cells were incubated with 1 ml Fixation/Permeabilization solution for 50 min, washed twice with Permeabilization buffer and incubated with anti-Foxp3 Ab for 50 min. Cells were then washed twice with Permeabilization buffer and resuspended with FACS buffer. Analysis was performed using a FACSCalibur instrument (Becton Dickinson, San Jose, Calif.) with FCS express V.3 software (DeNovo software, Los Angeles, Calif.).
as §2

[4] = test system: IFN-γ; assay: Serum IFN-γ by sandwich ELISA in ConA induced hepatitis; type: in vivo, mice
Method: as §1
Assessment of the effect of any of the synthetic analogs on the immune response was next determined by analysis of the cytokine serum level of IFNγ in each animal using a commercial “sandwich” ELISA kit, and by FACS analysis of intrahepatic and intrasplenic (peripheral) lymphocytes levels.

[5] = test system: STAT4; assay: Immunoblot of liver lysates: STAT4; type: in vivo, mice; conditions: IP
Method: For ConA induced hepatitis experiments spleen and liver lysates were lysed in RIPA buffer containing 50 mM Tris, pH 7.4, 1% NP-40, 150 mM NaCl, 0.1% SDS, 0.5% sodium deoxycholate and protease inhibitors (5 μg/ml, Sigma), with protease and phosphatase (Sigma, Rehovot, Israel).
Lysates were centrifuged twice at 4° C. for 10 minutes in 14000 rpm. Equivalent amounts of lysates (15 μg/lane), determined by Bradford assay (Bio-Rad, Rehovot, Israel), were separated by sodium dodecyl sulfate polyacrylamide gel electrophoresis (SDS-PAGE) and transferred to nitrocellulose membranes.
Blots were developed with horseradish peroxidase-conjugated secondary antibodies (Jackson Laboratories Bar Harbor, Me.) and Western Blot-Luminol Reagent (Santa Cruz Biotechnology, CA, USA). Cell counting and western Blot quantification was performed using total Lab (Phoretix, USA) software.

[6] = test system: IL-6; assay: Serum IL-6 by ELISA in ConA induced hepatitis; type: in vivo, mice; conditions: intraperitoneal
Method: as §1

Structure (SMILES): CCCCCCCCCCCCCC=CC(O)C(CO[C@@H]1OC(CO)[C@@H](O)C(O)C1O)NC(=S)NC12CC3CC(CC(C3)C1)C2 (stereo in doubt) [ALIB-97, N-adamantyl-N′-glucosylsphingosine thiourea]
- serum TNF-α secretion ([1]; B6 mice): modest effect
- serum TNF-α levels ([1]; CD1d−/− KO mice): decreased
- serum TNF-α levels ([1]; Jα18−/− KO mice): decreased
- serum AST ([2]; day 30, 15 μg per os daily): 289 u/L
- serum ALT ([2]; day 30, 45 μg per os daily, vehicle group A 370, p<0.05): 165 u/L
- serum AST ([2]; day 30, 45 μg per os daily): 124 u/L
- CD4+CD25+FOXP3+ cells, ADIPOCYTES [3]: ↑↑ (↓/↑ and ↓↓/↑↑-p≦0.05 and p≦0.01 respectively)
- CD4+CD25+IL17+ cells, SVC [3]: ↑ (↓/↑ and ↓↓/↑↑-p≦0.05 and p≦0.01 respectively)
- CD4+FOXP3+ cells, SPLEEN [3]: ↓ (↓/↑ and ↓↓/↑↑-p≦0.05 and p≦0.01 respectively)
- CD4+FOXP3+IL17+ cells, ADIPOCYTES [3]: ↓ (↓/↑ and ↓↓/↑↑-p≦0.05 and p≦0.01 respectively)
- CD4+IL17+ cells, ADIPOCYTES [3]: ↓ (↓/↑ and ↓↓/↑↑-p≦0.05 and p≦0.01 respectively)
- CD8+CD25+ cells, ADIPOCYTES [3]: ↓ (↓/↑ and ↓↓/↑↑-p≦0.05 and p≦0.01 respectively)
- CD8+CD25+FOXP3+ cells, SPLEEN [3]: ↑↑ (↓/↑ and ↓↓/↑↑-p≦0.05 and p≦0.01 respectively)
- CD8+CD25+FOXP3+ cells, SVC [3]: ↓ (↓/↑ and ↓↓/↑↑-p≦0.05 and p≦0.01 respectively)
- CD8+CD25+FOXP3+IL17+ cells, ADIPOCYTES [3]: ↓ (↓/↑ and ↓↓/↑↑-p≦0.05 and p≦0.01 respectively)
- CD8+CD25+FOXP3+IL17+ cells, SPLEEN [3]: ↑ (↓/↑ and ↓↓/↑↑-p≦0.05 and p≦0.01 respectively)
- CD8+CD25+IL17+ cells, ADIPOCYTES [3]: ↑ (↓/↑ and ↓↓/↑↑-p≦0.05 and p≦0.01 respectively)
- CD8+CD25+IL17+ cells, SVC [3]: ↑ (↓/↑ and ↓↓/↑↑-p≦0.05 and p≦0.01 respectively)
- CD8+FOXP3+ cells, SPLEEN [3]: ↑↑ (↓/↑ and ↓↓/↑↑-p≦0.05 and p≦0.01 respectively)
- CD8+FOXP3+IL17 cells, ADIPOCYTES [3]: ↓↓ (↓/↑ and ↓↓/↑↑-p≦0.05 and p≦0.01 respectively)
- CD8+IL17+ cells, ADIPOCYTES [3]: ↓ (↓/↑ and ↓↓/↑↑-p≦0.05 and p≦0.01 respectively)
- CD25+FOXP3+ cells, SPLEEN [3]: ↓ (↓/↑ and ↓↓/↑↑-p≦0.05 and p≦0.01 respectively)
- serum IFN-γ levels ([4]; B6 mice, intraperitoneal): marked decrease
- serum IFN-γ levels ([4]; B6 mice, oral administration, after 20 hours, vs control p<0.01): significant decrease
- serum IFN-γ levels ([4]; CD1d−/− KO mice, intraperitoneal): did not significantly alter
- IFNγ serum levels ([4]; ConA induced hepatitis, C57Bl/6 mice, intraperitoneal, low dosage 1 μg/mice): decrease
- serum IFN-γ levels ([4]; Jα18−/− mice, intraperitoneal): substantial increase
- STAT4 expression in the liver ([5]; B6 mice): strikingly decreased
- STAT4 expression in the liver ([5]; CD1d−/− mice): remained unchanged
- serum IL-6 levels ([6]; B6 mice): reduced
- serum IL-6 levels ([6]; Jα18−/− mice): reduced
